Entries after “also recorded” stand apart in the source; their conditions may differ.
Legend:
CD4+ T cells [1] = experiment: TCR activation markers (CD25, CD69, Nur77, CD44); type: cell-based, mouse
Description: (§1) Representative FACS plots of CD4^+ T cells cultured for 3 days and stained intracellularly for FoxP3 (e). Quantification of FoxP3^+ and viable T cells after 3-day culture (f) (n=2/group). n, number of biologically independent samples. Data are representative of two independent experiments (b, d). Data in (c) are shown as the mean±standard deviation.

naïve CD4+ T cells = experiment: Cell proliferation assay (CFSE); type: cell-based, mouse; details: 3 days, vs DMSO
Description: Data are representative of two independent experiments (b, d).
Cell Proliferation Assay. Naïve CD4^+ T cells were labeled with 1 μM carboxyfluorescein succinimidyl ester (CFSE, BioLegend) and cultured for 3 days prior to FACS analysis.

[2] = Measurement of lipophilicity (octanol/ammonium bicarbonate partitioning, LC-MS); details: n-octanol / 50 mM ammonium bicarbonate, pH 8
Description: Measurement of lipophilicity. Partitioning Method: 2 μL of 10 mM stock solutions of each target compound was added to a 1 mL each of 50 mM ammonium bicarbonate (pH=8), and 1 mL of n-octanol in an Eppendorf tube. The resulting two-phase mixture was vortexed and then shaken for 18 h at 20° C. The two phases were then carefully separated into the aqueous sample (bottom layer), and organic sample (top-layer) and placed separately in autosampler vials and analyzed by LC-MS/MS. LC-MS Method: a Thermo q-Exactive Plus LC-MS equipped with an Ultimate 3000 HPLC was operated in negative ion mode after optimized to detect the [M− H]^− of the bile acids. […] A Dikma Inspire C8 column (3 μm particle size, 100 mm length, 4.6 mm ID) was used for analysis. Each injection was 5 μL, and a constant flow rate of 0.400 L/min was used. The gradient started at 0% B and was held constant for 2 minutes. Then the mobile phase composition was linearly changed to 100% B over 8 minutes and held at 100% for the following 5 minutes. The mobile phase composition was changed to 0% B over the following 0.1 minutes and the system was allowed to equilibrate to starting conditions over 1.9 minutes. Standards of all targets were used to establish retention times. Better than 2 ppm mass accuracy was obtained on all measurements. The LC-MS analysis was done in triplicate, while the partitioning was done once for each target's [M− H]^− ion. Calculation of log D: the total response of target in octanol was divided by the total response in the aqueous phase to get a partitioning coefficient. Then, log base 10 was taken and reported.

[3] = tested on: ileal lamina propria Th17 and Treg cells; experiment: SFB-dependent Th17 cells in mice fed bile acid diet; type: in vivo, mouse; details: 0.3% diet
Description: Data are shown as the mean±standard deviation by unpaired t-test with 2-tailed p-value.
Cells were then analyzed by flow cytometry.

CD4+ T cells [4] = tested on: CD4+ T cells
Description: as §1
Naïve CD4^+ T cells were isolated from FoxP3-IRES-GFP mice. d, Flow cytometry of CD4^+ T cells stained intracellularly for FoxP3. Naïve CD4^+ T cells isolated from WT, CNS1, CNS2 or CNS3 knockout mice (n=3/group) were cultured with anti-CD3/28 and IL-2, LCA (20 μM), TGF-β (0.05 ng/ml) and additional retinoic acid (RA; 1 ng/ml). e and f, Flow cytometry (e) and its quantification (f) of CD4^+ T cells stained intracellularly for FoxP3. […] Data are representative of two independent experiments (c, d). Data are shown as the mean±standard deviation by unpaired t-test with 2-tailed p-value.
Flow Cytometry. Cells harvested from in vitro culture or in vivo mice experiments were stimulated with 50 ng/mL PMA (Phorbol 12-myristate 13-acetate, Sigma) and 1 μM ionomycin (Sigma) in the presence of GolgiPlug (BD) for 4 h to determine cytokine expression. After stimulation, cells were stained with cell surface marker antibodies and LIVE/DEAD Fixable dye, Aqua, to exclude dead cells, fixed and permeabilized with a FoxP3/Transcription factor staining kit (eBioscience), followed by staining with cytokine- and/or transcription factor-specific antibodies. All flow cytometry analyses were performed on an LSR II flow cytometer (BD) and data were analyzed with FlowJo software (TreeStar).

[5] = tested on: naïve CD4+ T cells (Th1 or Th2 cells); experiment: In vitro Th1 and Th2 differentiation (IFN-γ, IL-4, T-bet, GATA3); type: cell-based, mouse; details: 20 μM, day 5
Description: In Vitro T Cell Culture. Naïve CD4^+ (CD62L^+ CD44^− CD25^− CD4^+) T cells were isolated from the spleens and the lymph nodes of mice of designated genotypes with FACS sorting. For certain experiments, naïve CD4^+ T cells were enriched using naïve CD4^+ T cell isolation kits (Miltenyi). Naïve CD4^+ T cells (40,000 cells) were cultured in a 96-well plate pre-coated with hamster IgG (MP Biomedicals) in T cell medium (RPMI, 10% fetal bovine serum, 25 mM glutamine, 55 μM 2-mercaptoethanol, 100 U/mL penicillin, […] streptomycin) supplemented with 0.25 μg/mL anti-CD3 (clone 145-2C11) and 1 μg/mL anti-CD28 (clone 37.51). For Th0 culture, T cells were cultured with the addition of 100 U/mL of IL-2 (PEPROTECH). For Th1 cell differentiation, T cells were cultured with the addition of 100 U/mL of IL-2, 10 μg/mL of anti-IL-4 (clone 11B11) and 10 ng/mL of IL-12 (PEPROTECH). For Th2 cell differentiation, T cells were cultured with the addition of 10 μg/mL of anti-IFNγ (clone XMG1.2) and 10 ng/mL of IL-4 (R&D Systems). For Th17 cell differentiation, T cells were cultured with the addition of 10 ng/mL of IL-6 (eBioscience) and 0.5 ng/mL of TGF-β (PEPROTECH). […]
Flow Cytometry. […] All flow cytometry analyses were performed on an LSR II flow cytometer (BD) and data were analyzed with FlowJo software (TreeStar).

[6] = tested on: colon lamina propria Th17 cells; experiment: Citrobacter rodentium infection of germ-free mice; type: in vivo, mouse; details: germ-free B6 mice, C. rodentium, 0.3% diet
Description: For the box plots (a, b), the three horizontal lines of the box represent the third quartile, median and first quartile, respectively from top to bottom. […] Mice were fed an autoclaved diet with or without 3-oxoLCA (0.3%) (n=9 mice/group).

## C[C@H](CCC(=O)O)[C@H]1CC[C@H]2[C@@H]3CC[C@@H]4CC(=O)CC[C@]4(C)[C@H]3CC[C@]12C [3-oxoLCA, 3-oxolithocholic acid]
CD4+ T cells [1]
  T cell receptor (TCR)-mediated activation: do not significantly affect cell proliferation, cell viability, or T cell activation
naïve CD4+ T cells
  cell proliferation: do not significantly affect cell proliferation; also recorded: did not affect cell proliferation
[2]
  logD at 18 h: 2.4
[3]; Jax-B6 mice gavaged with SFB, one week
  percentage of ileal Th17 cells: significantly reduced the percentage of ileal Th17 cells
[3]; Tac-B6 mice with pre-existing SFB, 7 days
  Th17 cell percentages: reduced levels of Th17 cell percentages
[3]; Tac-B6 mice, 7 days
  Treg percentages: did not affect Treg percentages
CD4+ T cells [4]
  cell viability: do not significantly affect cell proliferation, cell viability
[5]
  T cell differentiation into Th1 or Th2 cells: neither compound affected T cell differentiation into Th1 or Th2 cells
[6]
  Th17 cell induction in the colon: reduced Th17 cell induction in the colons of germ-free B6 mice infected with Citrobacter rodentium

Reference: patent US12103946B2, “Steroid compounds as Treg modulators and uses thereof” (New York University, priority 2018, dated 2024)
